Source: ChEMBL document CHEMBL1122227, “Synthesis and antiarrhythmic and parasympatholytic properties of substituted phenols. 1. Heteroarylamine derivatives” (1983)
Activity calls are given as the source filed them. No cut-off for these calls is given here.

Assays:
[1] = target: Muscarinic acetylcholine receptor (Rattus norvegicus) (UniProt P08482+P08483+P08485+P08911+P10980); test: Percentage inhibition of field stimulated contraction guinea pig ileum (parasympatholytic activity)in presence of test compound (4 mg/L); assay type: functional, tissue-based; conditions: Cavia porcellus, target entry is the homologue from another species
Canis familiaris [2] = species on record: Canis familiaris; test: Active dose for antiarrhythmic activity in Harris dog.; assay type: functional, Canis lupus familiaris, Heart
Canis familiaris [3] = test: Active dose for antiarrhythmic activity in Harris dog.(partial restoration of normal sinus rhythm up to 12 mg/kg when loss of muscle tone occurred); low activity; assay type: functional, organism-based; parameters: dose 12 mg/kg; conditions: Canis lupus familiaris
Canis familiaris [4] = test: Active dose for antiarrhythmic activity in Harris dog; inactive to 22 mg/kg; assay type: functional, organism-based; parameters: dose 22 mg/kg; conditions: Canis lupus familiaris; Heart
Canis familiaris [5] = test: Active dose for antiarrhythmic activity in Harris dog; inactive to 30 mg/kg; assay type: functional, organism-based; parameters: dose 30 mg/kg; conditions: Canis lupus familiaris; Heart
Canis familiaris [6] = test: Active dose for antiarrhythmic activity in Harris dog.(partial restoration of normal sinus rhythm up to 9 mg/kg when death occurred); low activity; assay type: functional, organism-based; parameters: dose 9 mg/kg; conditions: Canis lupus familiaris; Heart
Canis familiaris [7] = test: Active dose for antiarrhythmic activity in Harris dog. (incomplete or no effect to restore sinus rhythm up to 30 mg/kg); low activity; assay type: functional, organism-based; parameters: dose 30 mg/kg; conditions: Canis lupus familiaris; Heart
Canis familiaris [8] = test: Active dose for antiarrhythmic activity in Harris dog. (incomplete restoration of normal sinus rhythm up to 2 mg/kg when death occurred); low activity; assay type: functional, organism-based; parameters: dose 2 mg/kg; conditions: Canis lupus familiaris; Heart

Structure (SMILES) | inhibition [1] | Dose (Canis familiaris [2]) | other results
Oc1c(CN2CCCC2)cc(Nc2ccc(Cl)nn2)cc1CN1CCCC1 | 40% | 10.5 mg/kg | 
Oc1c(CN2CCCC2)cc(Nc2ncccn2)cc1CN1CCCC1 | 6% |  | DOSE (Canis familiaris [3]): Partially active
Oc1c(CN2CCCC2)cc(Nc2ncnc3ccccc23)cc1CN1CCCC1 [CHANGROLIN] | 43% | 10.3 mg/kg | 
Oc1ccc(Nc2ncnc3ccccc23)cc1 | 13% |  | DOSE (Canis familiaris [5]): inactive
Cc1cc(Nc2cc(CN3CCCC3)c(O)c(CN3CCCC3)c2)c2ccccc2n1 |  | 11 mg/kg | 
Oc1c(CN2CCCC2)cc(Nc2ccncc2)cc1CN1CCCC1 | 5% | 8.5 mg/kg | 
Oc1ccccc1Nc1ncnc2ccccc12 | 48% |  | DOSE (Canis familiaris [5]): inactive
Oc1c(CN2CCCC2)cc(Nc2ccnc3ccccc23)cc1CN1CCCC1 | 19% |  | DOSE (Canis familiaris [6]): Partially active
Oc1c(CN2CCCC2)cc(Nc2ccnc3cc(C(F)(F)F)ccc23)cc1CN1CCCC1 | 36% | 3 mg/kg | 
Oc1ccc(Nc2nncc3ccccc23)cc1 | 23% |  | DOSE (Canis familiaris [5]): inactive
CC(=O)Nc1cc(CN2CCCC2)c(O)c(CN2CCCC2)c1 |  |  | DOSE (Canis familiaris [5]): inactive
Oc1c(CN2CCCC2)cc(Nc2nnc(Cl)c3ccccc23)cc1CN1CCCC1 | 76% | 2.5 mg/kg | 

Second part, led by results:

inhibition [1] | Structure (SMILES) | Dose (Canis familiaris [2]) | other results
48% | Oc1c(CN2CCCC2)cc(Nc2nccc3ccccc23)cc1CN1CCCC1 | 1.1 mg/kg | 
14% | CN(C)Cc1cc(Nc2nncc3ccccc23)cc(CN(C)C)c1O | 14 mg/kg | 
72% | Oc1ccc(Nc2ccc3ccccc3n2)cc1CN1CCCC1 | 11 mg/kg | 
21% | Oc1c(CN2CCCC2)ccc(Nc2ncnc3ccccc23)c1CN1CCCC1 |  | DOSE (Canis familiaris [4]): inactive
65% | Oc1ccc(Nc2nnc(Cl)c3ccccc23)cc1CN1CCCC1 | 17 mg/kg | 
27% | Oc1c(CN2CCCC2)cc(Nc2ccnc3cc(Cl)ccc23)cc1CN1CCCC1 |  | DOSE (Canis familiaris [3]): Partially active
78% | Oc1c(CN2CCCC2)cc(CNc2nnc(Cl)c3ccccc23)cc1CN1CCCC1 | 4.5 mg/kg | 
3% | Nc1cc(CN2CCCC2)c(O)c(CN2CCCC2)c1 |  | DOSE (Canis familiaris [5]): inactive
14% | COc1cc2c(Nc3cc(CN4CCCC4)c(O)c(CN4CCCC4)c3)ncnc2c(OC)c1OC |  | DOSE (Canis familiaris [7]): Partially active
93% | Clc1nnc(Nc2cc(CN3CCCC3)cc(CN3CCCC3)c2)c2ccccc12 | 3 mg/kg | 
83% | Oc1c(CN2CCCC2)cc(Nc2nncc3ccccc23)cc1CN1CCCC1 | 1.5 mg/kg | 
84% | COc1nnc(Nc2cc(CN3CCCC3)c(O)c(CN3CCCC3)c2)c2ccccc12 |  | DOSE (Canis familiaris [8]): Partially active
50% | Oc1c(CN2CCCC2)cc(Nc2ccc3ccccc3n2)cc1CN1CCCC1 | 6 mg/kg | 
